# Source: US20130018033A1, “RAF INHIBITOR COMPOUNDS AND METHODS OF USE THEREOF” (ARRAY BIOPHARMA INC., priority 2009, published 2013)
# Like-named read-outs stand apart in the source and are kept apart here.
# Legend:
# [1] = target: T1, V600E full-length B-Raf (Homo sapiens, UniProt P15056, V600E); test: B-Raf IC50 assay (Example A); type: biochemical
# T1 construct: 1 μM FSBA-MEK and 20 nM V600E full-length B-Raf; made in house; host or cells: Sf9 insect cells (baculovirus)
# Source text: Determining the activity of Raf in the sample is possible by a number of direct and indirect detection methods (US 2004/0082014). Activity of human recombinant B-Raf protein may be assessed in vitro by assay of the incorporation of radio labeled phosphate to recombinant MAP kinase (MEK), a known physiologic substrate of B-Raf, according to US 2004/0127496 and WO 03/022840. The activity/inhibition of V600E full-length B-Raf was estimated by measuring the incorporation of radio labeled phosphate from [γ-^33P]ATP into FSBA-modified wild-type MEK (see Example A).
# Activity of human recombinant B-Raf protein may be assessed in vitro by assay of the incorporation of radio labeled phosphate to recombinant MAP kinase (MEK), a known physiologic substrate of B-Raf, according to US 2004/0127496 and WO 03/022840. Catalytically active human recombinant B-Raf protein is obtained by purification from sf9 insect cells infected with a human B-Raf recombinant baculovirus expression vector.
# The activity/inhibition of V600E full-length B-Raf was estimated by measuring the incorporation of radio labeled phosphate from [γ-^33P]ATP into FSBA-modified wild-type MEK. The 30-μL assay mixtures contained 25 mM Na Pipes, pH 7.2, 100 mM KCl, 10 mM MgCl2, 5 mM β-glycerophosphate, […], 4 μM ATP, 500 nCi [γ-^33P]ATP, 1 μM FSBA-MEK and 20 nM V600E full-length B-Raf. Incubations were carried out at 22° C. in a Costar 3365 plate (Corning). Prior to the assay, the B-Raf and FSBA-MEK were preincubated together in assay buffer at 1.5×(20 μL of 30 nM and 1.5 μM, respectively) for 15 minutes, and the assay was initiated by the addition of 10 μL of 10 μM ATP. Following the 60-minute incubation, the assay mixtures were quenched by the addition of 100 μL of 25% TCA, the plate was mixed on a rotary shaker for 1 minute, and the product was captured on a Perkin-Elmer GF/B filter plate using a Tomtec Mach III Harvester. After sealing the bottom of the plate, 35 μL of Bio-Safe II (Research Products International) scintillation cocktail were added to each well and the plate was top-sealed and counted in a Topcount NXT (Packard).
# [2] = tested on: basal ERK1/2 phosphorylation in Malme-3M cells; test: Cellular ERK 1/2 phosphorylation assay (Example A1); type: cell-based; conditions: Homo sapiens, 1 hour incubation, pERK normalized to total ERK, read-out: P-ERK Malme3-M IC50
# Procedure: Inhibition of basal ERK1/2 phosphorylation was determined by the following in vitro […], which comprises incubating cells with a compound of Formula I for 1 hour and quantifying the fluorescent pERK signal on fixed cells and normalizing to total ERK signal.
# Malme-3M cells were obtained from ATCC and grown in RPMI-1640 supplemented with 10% fetal bovine serum. Cells were plated in 96-well plates at 24,000 cells/well and allowed to attach for 16-20 hours at 37° C., 5% CO2. The media was removed, and DMSO-diluted compounds were added in RPMI-1640 at a final concentration of 1% DMSO. The cells were incubated with the compounds for 1 hour at 37° C., 5% CO2. The cells were washed with PBS and fixed in 3.7% formaldehyde in PBS for 15 minutes. This was followed by washing in PBS/0.05% Tween20 and permeabilizing in −20° C. 100% MeOH for 15 minutes. Cells were washed in PBS/0.05% Tween20 then blocked in Odyssey blocking buffer (LI-COR Biosciences) for 1 hour. Antibodies to phosphorylated ERK (1:400, Cell Signaling #9106, monoclonal) and total ERK (1:400, Santa Cruz Biotechnology #sc-94, polyclonal) were added to the cells and incubated 16-20 hours at 4° C. After washing with PBS/0.05% Tween20, the cells were incubated with fluorescently-labeled secondary antibodies (1:1000 goat anti-rabbit IgG-IRDye800, Rockland and 1:500 goat anti-mouse IgG-Alexa Fluor 680, Molecular Probes) for an additional hour. Cells were then washed and analyzed for fluorescence at both wavelengths using the Odyssey Infrared Imaging System (LI-COR Biosciences). Phosphorylated ERK signal was normalized to total ERK signal.
# [3] = B-Raf V600E assay of Example A, read-out: IC50
# [4] = [γ-33P]ATP incorporation into FSBA-MEK, 4 μM ATP, read-out: BRAF V600E IC50
# T1 sequence (P15056 whole entry V600E): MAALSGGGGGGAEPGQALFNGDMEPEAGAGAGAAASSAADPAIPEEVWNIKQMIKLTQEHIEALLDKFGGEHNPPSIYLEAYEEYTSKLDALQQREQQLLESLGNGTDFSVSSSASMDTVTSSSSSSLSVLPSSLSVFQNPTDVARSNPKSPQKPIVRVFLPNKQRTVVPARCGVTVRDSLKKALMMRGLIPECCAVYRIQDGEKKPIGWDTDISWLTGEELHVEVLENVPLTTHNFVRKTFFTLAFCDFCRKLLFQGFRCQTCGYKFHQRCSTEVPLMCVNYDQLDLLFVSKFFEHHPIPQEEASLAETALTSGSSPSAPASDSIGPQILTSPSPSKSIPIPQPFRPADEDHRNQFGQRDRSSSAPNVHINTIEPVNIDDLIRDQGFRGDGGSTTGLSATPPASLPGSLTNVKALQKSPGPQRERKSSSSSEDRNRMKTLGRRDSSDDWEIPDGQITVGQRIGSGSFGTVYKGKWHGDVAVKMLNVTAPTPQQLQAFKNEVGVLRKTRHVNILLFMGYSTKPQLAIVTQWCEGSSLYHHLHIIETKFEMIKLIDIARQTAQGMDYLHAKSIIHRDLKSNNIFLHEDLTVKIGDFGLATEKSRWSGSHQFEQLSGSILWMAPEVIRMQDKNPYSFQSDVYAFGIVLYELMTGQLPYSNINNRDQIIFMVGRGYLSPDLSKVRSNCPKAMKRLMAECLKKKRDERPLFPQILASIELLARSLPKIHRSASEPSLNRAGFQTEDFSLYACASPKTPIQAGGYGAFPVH
Structure (SMILES),"IC50 [1, 3]","IC50 [1, 4]","IC50 ([1]; BRAF V600E IC50 (μM), [γ-33P]ATP incorporation into FSBA-MEK, 4 μM ATP)",IC50 [2]
"CCCS(=O)(=O)Nc1ccc(F)c(NC(=O)c2cccc3c(N)ncnc23)c1F [Example 1, 4-Amino-quinazoline-8-carboxylic acid [2,6-difluoro-3-(propane-1-sulfonylamino)-phenyl]-amide]",< 100 nM,–,1.77 nM,8.67 nM
"CCCS(=O)(=O)Nc1ccc(F)c(NC(=O)c2cncc3c(N)ncnc23)c1F [Example 2, 4-Amino-pyrido[4,3-d]pyrimidine-8-carboxylic acid [2,6-difluoro-3-(propane-1-sulfonylamino)-phenyl]-amide]",< 100 nM,1.25 nM,–,9.6 nM
"CCCS(=O)(=O)Nc1ccc(F)c(NC(=O)c2cccc3c(N)ncnc23)c1OC [Example 4, 4-Amino-quinazoline-8-carboxylic acid [6-fluoro-2-methoxy-3-(propane-1-sulfonylamino)-phenyl]-amide]",< 1000 nM,191 nM,–,433 nM
"CCCS(=O)(=O)Nc1cccc(NC(=O)c2cccc3c(N)ncnc23)c1Cl [Example 5, 4-Amino-quinazoline-8-carboxylic acid [2-chloro-3-(propane-1-sulfonylamino)-phenyl]-amide]",< 100 nM,4.77 nM,–,40.7 nM
"CCCS(=O)(=O)Nc1ccc(F)c(NC(=O)c2cccc3c(N)ncnc23)c1 [Example 6, 4-Amino-quinazoline-8-carboxylic acid [2-fluoro-5-(propane-1-sulfonylamino)-phenyl]-amide]",< 100 nM,50.4 nM,–,1720 nM
"CCCS(=O)(=O)Nc1ccc(Cl)c(NC(=O)c2cccc3c(N)ncnc23)c1Cl [Example 7, 4-Amino-quinazoline-8-carboxylic acid [2,6-dichloro-3-(propane-1-sulfonylamino)-phenyl]-amide]",< 100 nM,0.07 nM,–,7.2 nM
"CCCS(=O)(=O)Nc1cccc(NC(=O)c2cccc3c(N)ncnc23)c1F [Example 8, 4-Amino-quinazoline-8-carboxylic acid [2-fluoro-3-(propane-1-sulfonylamino)-phenyl]-amide]",< 100 nM,10.8 nM,–,32.6 nM
"O=C(Nc1c(F)ccc(NS(=O)(=O)CC2CC2)c1F)c1cccc2c(NC3CC3)ncnc12 [Example 53, 4-Cyclopropylamino-quinazoline-8-carboxylic acid (3-cyclopropylmethanesulfonylamino-2,6-difluoro-phenyl)-amide]",< 1000 nM,976 nM,–,–
"CCCS(=O)(=O)Nc1ccc(F)c(NC(=O)c2cc(C)cc3c(NC4CCCC4)ncnc23)c1F [Example 71, 4-Cyclopentylamino-6-methyl-quinazoline-8-carboxylic acid [2,6-difluoro-3-(propane-1-sulfonylamino)-phenyl]-amide]",–,> 1000 nM,–,–
"CCCS(=O)(=O)Nc1ccc(F)c(NC(=O)c2cc(C)cc3c(NC4CC4)ncnc23)c1F [Example 73, 4-Cyclopropylamino-6-methyl-quinazoline-8-carboxylic acid [2,6-difluoro-3-(propane-1-sulfonylamino)-phenyl]-amide]",< 1000 nM,879 nM,–,–
"CCCS(=O)(=O)Nc1ccc(F)c(NC(=O)c2cc(C)cc3c(NC4CCOCC4)ncnc23)c1F [Example 74, 6-Methyl-4-(tetrahydro-pyran-4-ylamino)-quinazoline-8-carboxylic acid [2,6-difluoro-3-(propane-1-sulfonylamino)-phenyl]-amide]",–,> 1000 nM,–,–
"CCCS(=O)(=O)Nc1ccc(F)c(NC(=O)c2cc(C)cc3c(NC4CCC4)ncnc23)c1F [Example 75, 4-Cyclobutylamino-6-methyl-quinazoline-8-carboxylic acid [2,6-difluoro-3-(propane-1-sulfonylamino)-phenyl]-amide]",–,> 1000 nM,–,–

# Second part, led by results:
"IC50 [1, 3]","IC50 [1, 4]",Structure (SMILES),"IC50 ([1]; BRAF V600E IC50 (μM), [γ-33P]ATP incorporation into FSBA-MEK, 4 μM ATP)",IC50 [2]
< 100 nM,0.39 nM,"CCCS(=O)(=O)Nc1cc(F)c(F)c(NC(=O)c2cccc3c(N)ncnc23)c1F [Example 9, 4-Amino-quinazoline-8-carboxylic acid [2,3,6-trifluoro-5-(propane-1-sulfonylamino)-phenyl]-amide]",–,12 nM
–,> 1000 nM,"CCCS(=O)(=O)Nc1cc(F)c(F)c(NC(=O)c2cccc3c(NC4CCCCC4)ncnc23)c1F [Example 41, 4-Cyclohexylamino-quinazoline-8-carboxylic acid [2,3,6-trifluoro-5-(propane-1-sulfonylamino)-phenyl]-amide]",–,–
–,> 1000 nM,"CCCS(=O)(=O)Nc1cc(F)c(F)c(NC(=O)c2cccc3c(NC4CCOCC4)ncnc23)c1F [Example 42, 4-(Tetrahydropyran-4-ylamino)-quinazoline-8-carboxylic acid [2,3,6-trifluoro-5-(propane-1-sulfonylamino)-phenyl]-amide]",–,–
–,> 1000 nM,"CCCS(=O)(=O)Nc1cc(F)c(F)c(NC(=O)c2cccc3c(NC4CCNCC4)ncnc23)c1F [Example 44, 4-(Piperidin-4-ylamino)-quinazoline-8-carboxylic acid [2,3,6-trifluoro-5-(propane-1-sulfonylamino)-phenyl]-amide]",–,–
< 1000 nM,545 nM,"CCCS(=O)(=O)Nc1cc(F)c(F)c(NC(=O)c2cccc3c(NC4CC4)ncnc23)c1F [Example 45, 4-Cyclopropylamino-quinazoline-8-carboxylic acid [2,3,6-trifluoro-5-(propane-1-sulfonylamino)-phenyl]-amide]",–,–
–,> 1000 nM,"CCCS(=O)(=O)Nc1cc(F)c(F)c(NC(=O)c2cccc3c(NC4CCC(F)(F)CC4)ncnc23)c1F [Example 46, 4-(4,4-Difluoro-cyclohexylamino)-quinazoline-8-carboxylic acid [2,3,6-trifluoro-5-(propane-1-sulfonylamino)-phenyl]-amide]",–,–
–,> 1000 nM,"CCCS(=O)(=O)Nc1cc(F)c(F)c(NC(=O)c2cccc3c(Nc4ccn(C)n4)ncnc23)c1F [Example 48, 4-(1-Methyl-1H-pyrazol-3-ylamino)-N-(2,3,6-trifluoro-5-(propylsulfonamido)phenyl)quinazoline-8-carboxamide]",–,–
< 1000 nM,737 nM,"CCCS(=O)(=O)Nc1cc(F)c(F)c(NC(=O)c2cccc3c(NCC)ncnc23)c1F [Example 49, 4-Ethylamino-quinazoline-8-carboxylic acid [2,3,6-trifluoro-5-(propane-1-sulfonylamino)-phenyl]-amide]",–,–
–,> 1000 nM,"CCCS(=O)(=O)Nc1cc(F)c(F)c(NC(=O)c2cccc3c(NC)ncnc23)c1F [Example 50, 4-Methylamino-quinazoline-8-carboxylic acid [2,3,6-trifluoro-5-(propane-1-sulfonylamino)-phenyl]-amide]",–,–
–,> 1000 nM,"CCCS(=O)(=O)Nc1ccc(F)c(NC(=O)c2cc(C)cc3c(NC4CCC(F)(F)CC4)ncnc23)c1F [Example 76, 4-(4,4-Difluoro-cyclohexylamino)-6-methyl-quinazoline-8-carboxylic acid [2,6-difluoro-3-(propane-1-sulfonylamino)-phenyl]-amide]",–,–
